Results: patent US20200181132A1, “QUINOXALINE AND PYRIDOPYRAZINE DERIVATIVES AS PI3K-BETA INHIBITORS” (JANSSEN PHARMACEUTICA NV, priority 2017, published 2020)
pIC50, pKd: −log10 of the molar value. Where two headings read alike, the source gives them in different places.

Tests used:
[1] = test system: phosphorylation of Akt at Thr308 in PC-3 cells; assay: Cellular assay: phospho-Akt (Thr308) MSD ELISA in PC-3 cells; format: cell-based; conditions: 60 min incubation with compound, read-out: IC50 pAkt_Thr308
Experimental: (§1) Cellular activity of PI3Kβ inhibitors was determined by quantifying the phosphorylation of Akt in PC-3 cells. Akt phosphorylated at Ser473 and Thr308 were measured using an enzyme-linked immunosorbent assay (ELISA; Meso Scale Discovery (MSD), Gaithersburg, Md.) and specific primary antibodies from MSD.
(§2) On day 1, PC3 cells (ATCC # […]) were seeded into PerkinElmer MW96 plates at 25.000 cells per well, in 75 μl complete culture medium (DMEM high glucose, AQmedia™, D0819, Sigma-Aldrich) containing 10% heat inactivated FCS and incubated at 37° C., 5% CO2 during 24 hours. On day 2, compound or DMSO (0.3%) was added and cells were further incubated for 60 min at 37° C., 5% CO2 in a total volume of 100 μl of medium.
(§3) The phosphoprotein assay was executed according to vendor instructions in the Phospho-Akt (Ser473) Assay Whole Cell Lysate Kit (MSD # K15100D-3) and the Phospho-Akt (Thr308) Assay Whole Cell Lysate Kit (MSD # K151DYD-3) using the lysis, blocking and wash buffer provided.
(§4) Briefly, at the end of the cell treatment period, media were removed by aspiration and adherent cells were lysed in 50 μl ice-cold lysis buffer. MSD plates are supplied pre-coated with capture antibodies for Phospho-Akt (Ser473 and Thr308). After blocking, lysates from tissue culture plates were added and plates were washed. Then, a solution containing the detection antibody (anti-total Akt conjugated with an electrochemiluminescent compound-MSD Sulfo-tag label) was added. The signals were detected using an MSD SECTOR Imager 6000 and are proportional to the phospho-Akt titres.
(§5) Data were processed. The percentage of inhibition was plotted against the log concentration of test compounds, and the sigmoidal log concentration-effect curve of best fit was calculated by nonlinear regression analysis. From these concentration-response curves, the IC50 values were calculated. Five concentrations were used for curve fitting.

[2] = biological target: T1, PIK3Cβ_h (Homo sapiens, UniProt P42338); assay: Enzyme binding assay (KINOMEscan), PIK3Cβ; conditions: DiscoveRx
T1 construct: purchased DiscoveRx Corporation
T1 sequence (P42338 whole entry): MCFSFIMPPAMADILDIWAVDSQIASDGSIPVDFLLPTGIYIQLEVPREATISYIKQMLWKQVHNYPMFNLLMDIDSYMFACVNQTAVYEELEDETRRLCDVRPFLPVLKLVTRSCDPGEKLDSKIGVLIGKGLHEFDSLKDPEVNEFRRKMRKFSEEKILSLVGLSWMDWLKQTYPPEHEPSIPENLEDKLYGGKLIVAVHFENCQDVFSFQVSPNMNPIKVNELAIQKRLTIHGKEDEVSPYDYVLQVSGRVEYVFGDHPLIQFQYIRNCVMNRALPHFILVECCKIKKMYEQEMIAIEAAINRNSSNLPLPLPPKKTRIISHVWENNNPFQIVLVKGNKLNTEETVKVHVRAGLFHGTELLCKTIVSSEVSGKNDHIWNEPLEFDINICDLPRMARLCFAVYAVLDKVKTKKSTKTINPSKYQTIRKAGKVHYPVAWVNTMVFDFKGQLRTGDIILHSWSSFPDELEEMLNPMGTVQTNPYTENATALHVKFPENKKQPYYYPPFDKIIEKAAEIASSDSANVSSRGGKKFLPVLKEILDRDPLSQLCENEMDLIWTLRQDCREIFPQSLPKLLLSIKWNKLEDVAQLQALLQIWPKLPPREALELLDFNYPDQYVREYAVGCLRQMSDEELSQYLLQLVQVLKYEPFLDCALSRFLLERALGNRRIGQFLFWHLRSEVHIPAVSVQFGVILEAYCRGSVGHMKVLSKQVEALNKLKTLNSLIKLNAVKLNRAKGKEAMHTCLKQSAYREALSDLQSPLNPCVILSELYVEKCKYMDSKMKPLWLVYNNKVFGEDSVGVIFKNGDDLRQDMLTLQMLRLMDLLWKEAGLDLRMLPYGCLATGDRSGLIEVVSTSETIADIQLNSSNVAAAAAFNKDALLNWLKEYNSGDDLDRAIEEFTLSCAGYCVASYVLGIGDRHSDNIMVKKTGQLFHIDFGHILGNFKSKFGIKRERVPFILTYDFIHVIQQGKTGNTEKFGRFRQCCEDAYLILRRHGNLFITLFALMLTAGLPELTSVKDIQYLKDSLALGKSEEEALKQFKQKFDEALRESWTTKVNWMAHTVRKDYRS
Experimental: (§6) Enzyme Binding Assays (KINOMEscan®)
(§7) Kinase enzyme binding affinities of compounds disclosed herein were determined using the KINOMEscan technology performed by DiscoveRx Corporation, San Diego, Calif., USA (www.kinomescan.com). Table A reports the obtained Kd values (nM), with the Kd being the inhibitor binding constant: […]

[3] = biological target: T2, PIK3Cα_h (Homo sapiens, UniProt P42336); assay: Enzyme binding assay (KINOMEscan), PIK3Cα; conditions: DiscoveRx
T2 construct: purchased DiscoveRx Corporation
T2 sequence (P42336 whole entry): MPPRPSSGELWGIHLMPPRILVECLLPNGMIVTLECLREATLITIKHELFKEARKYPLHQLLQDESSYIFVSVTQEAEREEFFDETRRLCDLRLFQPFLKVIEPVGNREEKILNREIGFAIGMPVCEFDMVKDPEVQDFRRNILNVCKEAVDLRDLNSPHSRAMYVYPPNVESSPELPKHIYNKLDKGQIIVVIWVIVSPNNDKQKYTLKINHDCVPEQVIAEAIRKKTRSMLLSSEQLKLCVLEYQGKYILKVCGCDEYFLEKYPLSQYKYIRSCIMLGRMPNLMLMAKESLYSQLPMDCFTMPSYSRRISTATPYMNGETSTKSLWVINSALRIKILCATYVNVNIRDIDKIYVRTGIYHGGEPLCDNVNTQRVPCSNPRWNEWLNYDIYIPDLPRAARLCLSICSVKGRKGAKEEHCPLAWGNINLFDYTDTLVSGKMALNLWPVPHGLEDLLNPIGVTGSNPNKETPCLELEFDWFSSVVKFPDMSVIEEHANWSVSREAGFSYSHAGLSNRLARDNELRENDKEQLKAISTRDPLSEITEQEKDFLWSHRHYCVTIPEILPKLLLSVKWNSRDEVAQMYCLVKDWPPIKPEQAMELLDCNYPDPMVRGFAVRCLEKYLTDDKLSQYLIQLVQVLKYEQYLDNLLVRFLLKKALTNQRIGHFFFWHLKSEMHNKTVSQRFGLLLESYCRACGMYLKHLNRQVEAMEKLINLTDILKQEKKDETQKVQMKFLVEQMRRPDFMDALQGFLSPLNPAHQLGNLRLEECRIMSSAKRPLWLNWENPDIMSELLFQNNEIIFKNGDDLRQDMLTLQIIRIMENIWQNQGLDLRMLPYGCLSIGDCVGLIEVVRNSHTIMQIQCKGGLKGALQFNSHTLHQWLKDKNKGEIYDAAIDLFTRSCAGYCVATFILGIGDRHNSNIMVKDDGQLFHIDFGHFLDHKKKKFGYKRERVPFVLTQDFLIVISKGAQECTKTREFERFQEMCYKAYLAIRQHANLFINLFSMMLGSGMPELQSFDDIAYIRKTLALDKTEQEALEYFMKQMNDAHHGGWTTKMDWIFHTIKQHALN
Experimental: as §6, §7

[4] = biological target: T3, MTOR_h (Homo sapiens, UniProt P42345); assay: Enzyme binding assay (KINOMEscan), MTOR; conditions: DiscoveRx
T3 construct: purchased DiscoveRx Corporation
Experimental: as §6, §7

[5] = biological target: T4, PIK3Cδ_h (Homo sapiens, UniProt O00329); assay: Enzyme binding assay (KINOMEscan), PIK3Cδ; conditions: DiscoveRx
T4 construct: purchased DiscoveRx Corporation
T4 sequence (O00329 1-1044): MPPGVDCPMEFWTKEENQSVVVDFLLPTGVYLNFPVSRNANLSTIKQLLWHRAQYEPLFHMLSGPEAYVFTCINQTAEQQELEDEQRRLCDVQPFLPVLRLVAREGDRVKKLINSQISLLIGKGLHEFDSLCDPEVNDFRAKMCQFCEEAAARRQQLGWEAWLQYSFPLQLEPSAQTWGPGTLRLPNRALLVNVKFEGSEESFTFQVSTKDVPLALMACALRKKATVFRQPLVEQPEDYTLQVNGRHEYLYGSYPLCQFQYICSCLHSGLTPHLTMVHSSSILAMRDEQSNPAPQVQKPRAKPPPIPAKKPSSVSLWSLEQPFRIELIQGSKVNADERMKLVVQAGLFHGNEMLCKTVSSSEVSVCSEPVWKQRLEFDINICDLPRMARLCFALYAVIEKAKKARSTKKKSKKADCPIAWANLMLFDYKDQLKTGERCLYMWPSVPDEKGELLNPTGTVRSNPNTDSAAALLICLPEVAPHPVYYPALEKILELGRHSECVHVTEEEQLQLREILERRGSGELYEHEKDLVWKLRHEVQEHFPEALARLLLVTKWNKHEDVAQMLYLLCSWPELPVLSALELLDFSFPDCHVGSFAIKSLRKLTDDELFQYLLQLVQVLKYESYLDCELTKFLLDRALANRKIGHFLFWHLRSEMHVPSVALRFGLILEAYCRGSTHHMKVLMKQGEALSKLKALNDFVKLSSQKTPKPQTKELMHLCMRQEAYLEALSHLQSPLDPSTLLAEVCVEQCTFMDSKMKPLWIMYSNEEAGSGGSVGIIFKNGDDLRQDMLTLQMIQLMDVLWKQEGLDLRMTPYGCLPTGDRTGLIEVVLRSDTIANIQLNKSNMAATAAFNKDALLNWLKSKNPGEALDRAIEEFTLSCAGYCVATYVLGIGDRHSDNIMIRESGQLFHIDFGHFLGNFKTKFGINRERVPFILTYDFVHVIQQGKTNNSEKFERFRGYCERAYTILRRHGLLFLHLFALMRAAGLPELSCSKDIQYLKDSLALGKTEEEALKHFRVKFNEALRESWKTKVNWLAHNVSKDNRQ
Experimental: as §6, §7

[6] = test system: phosphorylation of Akt at Ser473 in PC-3 cells; assay: Cellular assay: phospho-Akt (Ser473) MSD ELISA in PC-3 cells; format: cell-based; conditions: 60 min incubation with compound, read-out: IC50 pAkt_S473
Experimental: as §1, §2, §3, §4, §5

[7] = biological target: T5, PIK3Cγ_h (Homo sapiens, UniProt P48736); assay: Enzyme binding assay (KINOMEscan), PIK3Cγ; conditions: DiscoveRx
T5 construct: purchased DiscoveRx Corporation
T5 sequence (P48736 whole entry): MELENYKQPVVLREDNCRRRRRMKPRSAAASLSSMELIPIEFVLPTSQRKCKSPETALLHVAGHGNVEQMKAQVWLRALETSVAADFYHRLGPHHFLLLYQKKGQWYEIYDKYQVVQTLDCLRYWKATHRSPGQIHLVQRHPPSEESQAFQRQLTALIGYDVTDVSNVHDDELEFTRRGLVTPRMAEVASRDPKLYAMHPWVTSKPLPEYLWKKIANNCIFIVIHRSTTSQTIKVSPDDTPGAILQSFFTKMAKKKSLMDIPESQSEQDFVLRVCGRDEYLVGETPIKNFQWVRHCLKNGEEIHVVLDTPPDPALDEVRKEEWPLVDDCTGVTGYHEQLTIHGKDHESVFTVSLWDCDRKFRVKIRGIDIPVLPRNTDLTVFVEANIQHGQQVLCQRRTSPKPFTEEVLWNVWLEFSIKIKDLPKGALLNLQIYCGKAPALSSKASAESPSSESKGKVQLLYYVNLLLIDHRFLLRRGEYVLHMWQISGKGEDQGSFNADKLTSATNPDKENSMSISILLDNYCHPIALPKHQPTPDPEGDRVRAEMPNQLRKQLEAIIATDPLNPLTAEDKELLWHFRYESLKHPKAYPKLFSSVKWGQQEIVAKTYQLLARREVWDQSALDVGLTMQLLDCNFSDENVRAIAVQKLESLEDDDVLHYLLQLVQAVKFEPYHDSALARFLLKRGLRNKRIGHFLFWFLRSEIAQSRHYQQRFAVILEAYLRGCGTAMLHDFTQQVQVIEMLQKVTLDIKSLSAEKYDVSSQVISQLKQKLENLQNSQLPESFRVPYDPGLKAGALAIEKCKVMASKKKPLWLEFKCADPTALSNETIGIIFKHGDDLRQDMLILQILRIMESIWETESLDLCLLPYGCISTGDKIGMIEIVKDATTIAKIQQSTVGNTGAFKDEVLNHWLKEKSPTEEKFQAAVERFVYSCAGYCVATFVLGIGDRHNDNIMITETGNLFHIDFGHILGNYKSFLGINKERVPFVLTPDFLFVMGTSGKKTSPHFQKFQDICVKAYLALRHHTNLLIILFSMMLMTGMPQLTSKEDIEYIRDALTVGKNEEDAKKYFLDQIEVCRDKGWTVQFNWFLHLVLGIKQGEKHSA
Experimental: as §6, §7

SMILES	pIC50 ([1]; Homo sapiens, PC-3, 1 h)	pKd [2]	pKd [3]	pKd [4]	pKd [5]	melting point [°C]	pIC50 ([6]; Homo sapiens, PC-3, 1 h)	pKd [7]	pIC50 [1]	pIC50 [6]
CN(C)C(=O)c1cc(C2CCCN2c2cc(Cl)ncn2)c2nc(N3CCOCC3)cnc2c1 (stereo not drawn) [Compound 1]	< 6.29	7.38	4.78	< 4.52	5.85	80	< 6.29	< 4.52		
COC(=O)c1cc(C(C)Nc2cncc(F)c2)c2nc(N3CCOCC3)cnc2c1 (stereo not drawn) [Compound 6]						240				
COc1ncc(F)cc1NC(C)c1cc(C(=O)N(C)C)cc2ncc(N3CCOCC3)nc12 (stereo not drawn) [Compound 26]	6.72	7.82	5.30	< 4.52	6.18	80	< 6.29	< 4.52		
CN(C)CCNC(=O)c1cc(C2CCCN2c2cncc(F)n2)c2nc(N3CCOCC3)cnc2c1 (stereo not drawn) [Compound 52]	< 6.29						< 6.29			
CN(C)CCNC(=O)c1cc(C2CCCN2c2ccnc(F)c2)c2nc(N3CCOCC3)cnc2c1 (single isomer, unassigned) [Compound 39]		5.97	4.72	4.71	4.50			< 4.52	< 6.29	< 6.29
Cc1ccncc1CNc1cc(C(=O)NCCO)cc2ncc(N3CCOCC3)nc12 [Compound 28]	< 6.29	5.90	4.79	4.51	4.81	244	< 6.29	4.59		
CC(Nc1cncc(Cl)n1)c1cc(C(=O)N(C)C)cc2ncc(N3CCOCC3)nc12 (stereo not drawn) [Compound 25]	6.33	7.68	4.79	< 4.52	5.88	225	< 6.29	4.54		
CC(Nc1cncc(F)c1)c1cc(C(=O)N2CC3(C2)CS(=O)(=O)C3)cc2ncc(N3CCOCC3)nc12 (single isomer, unassigned) [Compound 32]		5.26	< 4.52	< 4.52	4.65	180		< 4.52	< 6.29	< 6.29
COc1ncc(NC(C)c2cc(C(=O)N(C)C)cc3ncc(N4CCOCC4)nc23)cc1C(F)(F)F (stereo not drawn) [Compound 24]	< 6.29	6.23	< 4.52	< 4.52	5.08	80	< 6.29	< 4.52		
O=C(NCCO)c1cc(NCc2cncc(F)c2)c2nc(N3CCOCC3)cnc2c1 [Compound 29]	< 6.29					198	< 6.29			
O=C(NCCO)c1cc(C2CCCN2c2ccnc(Cl)c2)c2nc(N3CCOCC3)cnc2c1 (stereo not drawn) [Compound 47]	< 6.29	7.49	4.77	4.66	5.71		< 6.29	4.68		
CNCCOCCN(C)C(=O)c1cc(C2CCCN2c2ccnc(Cl)c2)c2nc(N3CCOCC3)cnc2c1 (stereo not drawn) [Compound 49]	< 6.29	7.55	< 4.52	< 4.52	5.61		< 6.29	< 4.52		
CN(C)CCNC(=O)c1cc(C2CCCN2c2cncc(Br)n2)c2nc(N3CCOCC3)cnc2c1 (stereo not drawn) [Compound 51]	< 6.29	7.70	5.04	< 4.52	5.46		< 6.29	< 4.52		

Second part, the molecule after the results:

pIC50 ([1]; Homo sapiens, PC-3, 1 h)	pKd [2]	pKd [3]	pKd [4]	pKd [5]	melting point [°C]	pIC50 ([6]; Homo sapiens, PC-3, 1 h)	pKd [7]	pIC50 [1]	pIC50 [6]	SMILES
< 6.29	8.70	5.00	< 4.52	6.43	80	< 6.29	4.74			CNCCNC(=O)c1cc(C2CCCN2c2ccnc(Cl)c2)c2nc(N3CCOCC3)cnc2c1 (stereo not drawn) [Compound 48]
7.52	8.70	6.24	4.50	6.62	130	7.31	5.39			O=C(c1cc(C2CCCN2c2cncc(F)c2)c2nc(N3CCOCC3)cnc2c1)N1CC2(C1)CS(=O)(=O)C2 (stereo not drawn) [Compound 44]
7.18	8.70	4.87	< 4.52	6.26		6.99	4.71			CN(C)CCNC(=O)c1cc(C2CCCN2c2ccnc(Cl)c2)c2nc(N3CCOCC3)cnc2c1 (stereo not drawn) [Compound 46]
8.70	9.70		< 4.52	6.92		8.70	5.98			CN(C)CCNC(=O)c1cc(C2CCCN2c2cncc(F)c2)c2nc(N3CCOCC3)cnc2c1 (single isomer, unassigned) [Compound 40]
	8.10	4.94	< 4.52	5.85	177		4.68	7.23	7.96	CN(C)CCNC(=O)c1cc(C2CCCN2c2ccnc(F)c2)c2nc(N3CCOCC3)cnc2c1 (single isomer, unassigned) [Compound 38]
8.40	9.52	6.32	4.91	7.49		8.15	6.34			CN(C)CCNC(=O)c1cc(C2CCCN2c2cc(Cl)cc(Cl)n2)c2nc(N3CCOCC3)cnc2c1 (stereo not drawn) [Compound 45]
9.00	9.30	6.19	< 4.52	7.34		8.70	5.58			CN(C)CCN(C)C(=O)c1cc(C2CCCN2c2cncc(F)c2)c2nc(N3CCOCC3)cnc2c1 (stereo not drawn) [Compound 42]
8.52	9.10	6.68	< 4.52	7.28		~7.77	5.98			CN(C)C(=O)c1cc(C2CCCN2c2cncc(F)c2)c2nc(N3CCOCC3)cnc2c1 (stereo not drawn) [Compound 41]
7.92	9.05	5.78	< 4.52	6.79		7.72	5.48			CN(C)CCNC(=O)c1cc(C2CCCN2c2cncc(Cl)n2)c2nc(N3CCOCC3)cnc2c1 (stereo not drawn) [Compound 50]
